The NIST ThermoML archive (doi:10.1016/j.jct.2015.02.022)
Counter-ions that a name gives are not always drawn.

Columns and labels:
[1] = Liquid; for mass density / viscosity: 101.33 kPa; for mass density: Pycnometric method; for vapor or sublimation pressure: Closed cell (Static) method; for viscosity: Capillary tube (Ostwald / Ubbelohde) method
[2] = refractive index (Na D-line) (dimensionless); settings: 293.15 K; 101.33 kPa; Liquid; Standard Abbe refractometry

CCOC(=O)C(F)(F)F [ethyl trifluoroacetate]
[1]
Settings	mass density [kg/m3]	vapor or sublimation pressure [kPa]	viscosity [mPa·s]
278.08 K	1218.9	–	–
285.15 K	1205.9	–	–
289.23 K	1197.6	–	–
293.35 K	–	17.93	–
293.45 K	–	–	0.4635
293.68 K	1188.3	–	–
296.02 K	–	–	0.4506
298.3 K	–	22.86	–
298.63 K	–	–	0.4356
298.84 K	1179	–	–
300.75 K	–	25.36	–
301.19 K	–	–	0.4234
303.35 K	–	28.45	–
303.75 K	–	–	0.4107
303.86 K	1168	–	–
305.85 K	–	31.2	–
306.3 K	–	–	0.3986
307.89 K	1160.9	–	–
308.35 K	–	34.13	–
308.85 K	–	–	0.3881
310.85 K	–	38	–
311.33 K	–	–	0.3775
312.65 K	1151.4	–	–
313.35 K	–	42.3	–
313.93 K	–	–	0.3674
315.85 K	–	47.2	–
316.43 K	–	–	0.3581
317.43 K	1142.2	–	–
318.4 K	–	52	–
318.96 K	–	–	0.3497
320.97 K	–	57.2	–
321.63 K	–	–	0.3399
322.5 K	1131.3	–	–
323.45 K	–	63.2	–
324.15 K	–	–	0.3314
326.15 K	–	70.64	–
326.69 K	–	–	0.323
328.75 K	–	77.9	–
329.16 K	–	–	0.3153
331.45 K	–	86.5	–
331.64 K	–	–	0.3075
334.05 K	–	94.15	–
334.32 K	–	–	0.3009
335.25 K	–	99.92	–
335.65 K	–	101.33	–

Settings	refractive index
[2]	1.3086

CO [methanol]
[1]
Settings	vapor or sublimation pressure [kPa]	viscosity [mPa·s]
293.35 K	13.54	–
302.45 K	–	0.513
303.35 K	22.05	–
310.85 K	31.07	–
313.5 K	–	0.443
320.97 K	49.45	–
323.55 K	–	0.386
331.45 K	77.05	–
333.85 K	–	0.345
335.95 K	95.83	–
